# Measured values: patent US4196217A, “Hydroxylated amines with bacteriostatic activity” (priority 1978, dated 1980)
# “And” between values parts separate entries of the source, which are not always exact repeats. Equal entries are not always repeated. Where two headings read alike, the source gives them in different places.
# Key:
# Ps. aeruginosa = assay: in vivo effect on infection of excised wounds in rats; set-up: species or system rats infected with Ps. aeruginosa
# Procedure: The activity of the compound of Example 1 was also tested in vivo, in particular the compound was tested for its effect on Bacillus pyocyaneus in the following manner:
# Rats are intravenously injected with 1 ml of a 10^8 solution of Ps. aeruginosa. A 20 cm^2 cutaneous excision was then made in the animals.
# 30 minutes after the injection, the bacteria injected were detected in the vicinity of the wound by the replica method on a solid nutritive medium.
# One group of rats was sprayed with the compound of Example 1 (aqueous solution) in the vicinity of the wounds (1 to 3 times daily).
# A group of control rats were sprayed with sterile distilled water.
# ocular irritation = type: in vivo; conditions: 0.1 ml of a 0.5% solution
# Procedure: The method used is the method described in the Official Journal of Apr. 21, 1971, page 3863, and comprises applying to the right eye of each animal 0.1 ml of a 0.5% solution. The general total of the results is 0 which confirms the high tolerance of the product mentioned above.
# Bacillus subtilis [1] = assay: bacteriostatic activity (MIC), Bacillus subtilis; type: cell-based; conditions: for MIC: Bacillus subtilis, 48 h
# Procedure: (§1) The medium containing the solution to be tested is inoculated in the form of three single striae with a 10^-5 times dilution of a bacterial culture aged 16 to 18 hours grown in salted peptone broth at a temperature of 37° C.
# (§2) After inoculation, the media are stored at 37° C. for 48 hours, after which the bacterial growth is inspected. The MIC (minimum inhibiting concentrations) are expressed in micrograms of pure product per cubic centimeter of gelose medium required for inhibiting the culture (μg/cc). The control substance used is benzalconium chloride.
# (§3) Tests were also carried out to determine the bacteriostatic activity of other compounds according to the invention by the method described above and in comparison with known substances, in particular with benzalconium chloride (compound T in the Tables).
# in vivo = conditions: mouse, mice, intravenous, both after 3 minutes and after 14 days
# From the text: Acute toxicity was again determined in male mice by intravenous administration.
# spores = assay: sporocidal activity; type: cell-based; conditions: especially above 35° C. and at a pH around 7
# Moraxella glucidolytica = assay: bacteriostatic activity (MIC), Moraxella glucidolytica; type: cell-based; conditions: Moraxella, 48 h, Table I, 37° C., read-out: MIC
# Procedure: as §2, with “The medium containing the solution to be tested is inoculated in the form of three single striae with a 10^-5 times dilution of a bacterial culture aged 16 to 18 hours grown in salted peptone broth at a temperature of 37° C. After” for “After”
# Proteus vulgaris = assay: bacteriostatic activity (MIC), Proteus vulgaris; type: cell-based; conditions: Proteus vulgaris, 48 h, Table I, 37° C., read-out: MIC
# Procedure: as §2, with “The medium containing the solution to be tested is inoculated in the form of three single striae with a 10^-5 times dilution of a bacterial culture aged 16 to 18 hours grown in salted peptone broth at a temperature of 37° C. After” for “After”
# [2] = tested on: spores of B. subtilis var. Niger; assay: sporostatic activity (b), porous membrane with rinses; type: cell-based
# From the text: (b) A porous membrane 0.45μ thick is placed aseptically in a sterile filter support, covered with 10 cc of sterile distilled water containing 1 cc of mother solution of the product, followed by the addition of 1 cc of a suspension of spores of B. subtilis var. Niger containing approximately 40 spores. These liquids are drawn through the membrane, after which the membrane is transferred aseptically to a culture medium and placed in an oven. The operation is recommenced using up to 5 rinses of the membrane per 10 cc of sterile distilled water. The number of colonies developing is then determined.
# Bacillus subtilis [3] = assay: bactericidal activity, Bacillus subtilis; type: cell-based; conditions: Table II, 2 hours contact, laboratory temperature, read-out: MIC (bactericidal activity)
# Procedure: (§4) Bactericidal activity is determined by the following methods: A titrate suspension of bacteria is brought into contact over a period of 2 hours at the temperature of the laboratory with increasing dilutions of the test product. The number of bacteria still alive are counted after passage through a filtering membrane.
# Escherichia coli [4] = assay: bactericidal activity, Escherichia coli; type: cell-based; conditions: Table II, 2 hours contact, laboratory temperature, read-out: MIC (bactericidal activity)
# Procedure: as §4
# Serratia = assay: bacteriostatic activity (MIC), Serratia; type: cell-based; conditions: Serratia, 48 h, Table I, 37° C., read-out: MIC
# Procedure: as §2, with “The medium containing the solution to be tested is inoculated in the form of three single striae with a 10^-5 times dilution of a bacterial culture aged 16 to 18 hours grown in salted peptone broth at a temperature of 37° C. After” for “After”
# Pseudomonas aeruginosa [5] = assay: bactericidal activity, Pseudomonas aeruginosa; type: cell-based; conditions: Table II, 2 hours contact, laboratory temperature, read-out: MIC (bactericidal activity)
# Procedure: as §4
# Pseudomonas aeruginosa [6] = assay: bacteriostatic activity (MIC), Pseudomonas aeruginosa; type: cell-based; conditions: for MIC: Pseudomonas aeruginosa, 48 h
# Procedure: as §1, §2, §3
# Pneumobacille = assay: bacteriostatic activity (MIC), Pneumobacille; type: cell-based; conditions: 48 h, Table I, 37° C., read-out: MIC
# Procedure: as §2, with “The medium containing the solution to be tested is inoculated in the form of three single striae with a 10^-5 times dilution of a bacterial culture aged 16 to 18 hours grown in salted peptone broth at a temperature of 37° C. After” for “After”
# Bacillus pyocyaneus [7] = assay: in vitro MIC on 100 strains of Bacillus pyocyaneus; type: cell-based; conditions: Pseudomonas aeruginosa, read-out: minimum inhibiting concentration
# Procedure: In vitro tests on the activity of the compound of Example 1 were also carried out so as to determine the activity of that compound on Bacillus pyocyaneus. The results of determining the minimum inhibiting concentration on 100 different strains are as follows: […]
# Escherichia coli [8] = assay: bacteriostatic activity (MIC), Escherichia coli; type: cell-based; conditions: for MIC: Escherichia coli, 48 h; for M.I.C.: hydrochloride
# Procedure: as §1, §2, §3
# Bacillus pyocyaneus [9] = assay: bactericidal concentration on 6 different strains; type: cell-based
# [10] = aqueous solution sprayed near wounds, 1 to 3 times daily
# [11] = Table I, with 20% of serum, 37° C., 48 hours, read-out: MIC
# [12] = Table I, without serum, 37° C., 48 hours, read-out: MIC
# [13] = Table VI, bacteriostase containing 20% of serum, read-out: M.I.C.
# [14] = Table VI, bacteriostase without serum, read-out: M.I.C.
# [15] = Table VI, bacteriostase containing 20% of serum, hydrochloride
smiles,measurement,setting,value
"CCCCCCCCCCOCC(O)CN.Cl (stereo not shown) [Compound 1, 3-decyloxy-2-hydroxy-1-aminopropane hydrochloride]",number of colonies in positive cultures in relation to control rats,Ps. aeruginosa; [10],only a very small number of colonies
same,replica cultures totally negative,Ps. aeruginosa; [10],75%
same,local tolerance,"Ps. aeruginosa; rat, in vivo",good
same,healing process,"Ps. aeruginosa; sprayed near wounds, 1 to 3 times daily",normal
same,"ocular irritation, general total of the results",ocular irritation,0
same,MIC,Bacillus subtilis [1]; [11],50 µg/mL
same,MIC,Bacillus subtilis [1]; [12],30 µg/mL
same,MIC,Bacillus subtilis [1]; [13],60 µg/mL
same,MIC,Bacillus subtilis [1]; [14],15 µg/mL
same,M.I.C.,Bacillus subtilis [1]; [15],50 μg/cc and 40 μg/cc
same,LD50,in vivo,54.5 mg/kg
same,sporocidal activity,spores,positive
same,MIC,Moraxella glucidolytica; with 20% of serum,75 µg/mL
same,MIC,Moraxella glucidolytica; without serum,40 µg/mL
same,MIC,Proteus vulgaris; with 20% of serum,150 µg/mL
same,MIC,Proteus vulgaris; without serum,40 µg/mL
same,number of colonies (No = 37),[2]; 0 rinses of the membrane,3
same,number of colonies (No = 37),[2]; 1 rinse of the membrane,4
same,number of colonies (No = 37),[2]; 2 rinses of the membrane,35
same,number of colonies (No = 37),[2]; 3 rinses of the membrane,38
same,number of colonies (No = 37),[2]; 4 rinses of the membrane,48
same,number of colonies (No = 37),[2]; 5 rinses of the membrane,55
same,MBC,Bacillus subtilis [3],50 µg/mL
same,MBC,Escherichia coli [4],50 µg/mL
same,MIC,Serratia; with 20% of serum,75 µg/mL
same,MIC,Serratia; without serum,20 µg/mL
same,MBC,Pseudomonas aeruginosa [5],50 µg/mL
same,MIC,Pseudomonas aeruginosa [6]; [11],150 µg/mL
same,MIC,Pseudomonas aeruginosa [6]; [12],40 µg/mL
same,MIC,Pseudomonas aeruginosa [6]; [13],250 µg/mL
same,M.I.C.,Pseudomonas aeruginosa [6]; [15],200 μg/cc and 400 μg/cc and 350 μg/cc
same,MIC,Pneumobacille; with 20% of serum,75 µg/mL
same,MIC,Pneumobacille; without serum,35 µg/mL
same,MIC,Bacillus pyocyaneus [7]; 10 of 100 strains,100 µg/mL
same,MIC,Bacillus pyocyaneus [7]; 20 of 100 strains,25 µg/mL
same,MIC,Bacillus pyocyaneus [7]; 70 of 100 strains,50 µg/mL
same,MIC,Escherichia coli [8]; [11],75 µg/mL
same,MIC,Escherichia coli [8]; [12],20 µg/mL
same,MIC,Escherichia coli [8]; [13],60 µg/mL
same,MIC,Escherichia coli [8]; [14],20 µg/mL
same,M.I.C.,"Escherichia coli [8]; Table VI, bacteriostase containing 20% of serum",80 μg/cc and 75 μg/cc and 100 μg/cc
same,M.I.C.,"Escherichia coli [8]; Table VI, bacteriostase without serum",25 μg/cc and 40 μg/cc
same,bactericidal concentration,Bacillus pyocyaneus [9],very similar to the MIC
